Values after ≈ are worked out from the molar mass of the structure shown.
Legend:
Assay type in all cases: physicochemical
[1] = Moisture sorption analysis; conditions: for Hygroscopicity: moisture sorption, 0-95% RH cycles
Method: (§1) Moisture sorption analysis of the starting material was performed by equilibrating the sample at 25° C. and 50% RH to simulate ambient lab conditions. Humidity then decreased to 0% RH, increased from 0 to 95% RH, reduced from 95 to 0% RH, increased from 0 to 95 %RH and then decreased from 95 to 50% RH. Each point represents the estimated asymptotic weight for each humidity or weight. […] No hysteresis was observed upon desorption (FIG. 14).
as §1, with “of Pattern E (from” for “of”, “300 mg scale lot)” for “starting material”, “Humidity was” for “Humidity”, “19).” for “14).”
Moisture sorption analysis of Pattern C (300 mg lot) was performed by equilibrating the sample at 25° C. and 50% RH to simulate ambient lab conditions. Humidity was then decreased to 0% RH, increased from 0 to 95% RH, reduced from 95 to 0% RH, increased from 0 to 95%RH and then decreased from 95 to 50% RH. Each point represents the estimated asymptotic weight for each humidity or weight. […] This increased the total water to about 6% which is the water content of mono-hydrate. However, upon reducing the relative humidity, the solid lost its water. Therefore this could be a channel hydrate. No hysteresis was observed upon desorption (FIG. 24).
as §1, with “Pattern B (300 mg lot)” for “the starting material”, “The major weight loss at the beginning” for “No hysteresis”, “due to loss of solvent.” for “observed upon desorption (FIG. 14).”
as §1, with “Pattern F (from Example 6)” for “the starting material”, “Humidity was” for “Humidity”, “The major weight loss at the beginning is due to loss of solvent.” for “No hysteresis was observed upon desorption (FIG. 14).”

Grinding experiments = conditions: for XRPD after grinding: RT; for Stability of crystal form to grinding: light grinding, dry and with IPA or water
Method: Grinding experiments of the starting material were performed by dry grinding and solvent drop grinding in IPA and water utilizing a mortar and pestle (Table 18).

[2] = Short term slurry experiments (form by XRPD); conditions: slurried in most of 17 solvents, min. 3 days
Method: Short term slurry experiments of the starting material, Pattern A, were performed for a minimum of 3 days in 17 different solvent systems having diverse properties at two different temperatures (25 and 50° C.). A 48 position Chemglass reaction block was used for heating and stirring the slurries which were in 2 mL HPLC vials. After the due time, vials were centrifuged and the wet solids were used for X-ray diffraction.

[3] = 7 day elevated aqueous humidity studies; conditions: for XRPD [Pattern] 7 day: form after 7 days
Method: 7 day elevated aqueous humidity experiments were performed on all Patterns A, B, C, D, E and F at ambient conditions at > 95%RH (Table 17). Approximately 30 mg of each pattern was weighed into a 4 ml glass vial. The uncovered 4 ml vial was inserted into a 20 ml scintillation vial half filled with water and capped. Following 24 hours of equilibration, visual inspection was performed to check for changes in physical appearance, however no change was observed.

[4] = Aqueous solubility (HPLC); conditions: water, thermodynamic from solid, ambient conditions, 24 hours of equilibration
Method: Aqueous solubility of Patterns A, B, C, E and F was performed using an Agilent HPLC system. Approximately 10-20 mg of each form was charged to a 2 mL glass vial loaded with a magnetic stir bar and added 2 mL of water. The samples were allowed to stir overnight at ambient conditions. Following 24 hours of equilibration the samples were centrifuged and decanted into HPLC vials. A calibration curve was generated based on Pattern A in MeOH at 0.05, 0.1, 0.5 and 1.0 mg/mL. Following injection of the standard curve, the samples were run as is.

[5] = Solubility measurement of Pattern A in 17 solvent systems (gravimetric); conditions: for solubility: thermodynamic from solid
Source text: (R)-Trolox was produced from racemic Trolox via methylbenzyl amine double resolution in a manner similar to that described in Example 29 of U.S. Pat. No. 4,026,907. This (R)-Trolox was used to synthesize the (R)-2-hydroxy-2-methyl-4-(2,4,5-trimethyl-3,6-dioxocyclohexa-1,4-dienyl)butanamide starting material. This starting material, designated as Pattern A, was used for the solubility measurement.
Excess amount of solid was slurried in 17 solvent systems having diverse properties for minimum of 3 days. The slurry was centrifuged and the clear solution was used for gravimetric method. […] Limited solubility was observed from heptane, toluene, MTBE, water and 0.5% Methyl Cellulose in water at ambient and elevated temperatures. Table 9 presents the measured solubility data. A ±10% error is expected.

CC1=C(C)C(=O)C(CC[C@@](C)(O)C(N)=O)=C(C)C1=O [Pattern A, (R)-2-hydroxy-2-methyl-4-(2,4,5-trimethyl-3,6-dioxocyclohexa-1,4-dienyl)butanamide]
XRPD following moisture sorption analysis ([1]; after 0-95% RH cycles at 25° C.): consistent with the starting material, Pattern A | Water adsorbed ([1]; at 90 %RH, 25° C.): 0.1% | Hygroscopicity ([1]; 25° C.): non-hygroscopic | Hygroscopicity ([1]; 25° C., listed as Form I): non-hygroscopic | Hysteresis upon desorption ([1]; moisture sorption-desorption, 25° C.): No hysteresis | XRPD after grinding (Grinding experiments; dry grinding, mortar and pestle): Pattern A | Stability of crystal form to grinding (Grinding experiments): no change in the crystal form | Stability of crystal form to grinding (Grinding experiments; listed as Form I): stability to grinding | XRPD after grinding (Grinding experiments; solvent drop grinding, H2O (2 drops)): Pattern A | XRPD after grinding (Grinding experiments; solvent drop grinding, IPA (2 drops)): Pattern A | Stability of form in short term slurry [2]: relatively stable | Visual Observations 1 day ([3]; > 95 %RH at Ambient): Yellow solids | Visual Observations 7 day ([3]; > 95 %RH at Ambient): Yellow Solids | XRPD [Pattern] 7 day ([3]; > 95 %RH at Ambient): no change in form | XRPD [Pattern] 7 day ([3]; > 95 %RH at Ambient, listed as A): Crystalline [Pattern A] | Stability to elevated humidity ([3]; Example 8, summary statement): stability to elevated humidity | solubility at 24 h [4]: 1.74 mg/mL (≈ 6.56 mM) | Solubility in a simple detergent ([5]; 0.5% MC/2% Tween 80): increased solubility | solubility ([5]; 0.5% methyl cellulose in water, 25 °C, aqueous with cosolvent or surfactant or cyclodextrin, 0.5% MC in Water, part of the concentration relates to solvent constituents): 7 mg/mL (≈ 26.4 mM) | solubility ([5]; 0.5% methyl cellulose in water, 50 °C, aqueous with cosolvent or surfactant or cyclodextrin, 0.5% MC in Water, part of the concentration relates to solvent constituents): 4 mg/mL (≈ 15.1 mM) | solubility ([5]; 0.5% methyl cellulose/2% Tween 80, 25 °C, aqueous with cosolvent or surfactant or cyclodextrin, 0.5% MC/2% Tween 80, 25° C., part of the concentration relates to solvent constituents): 26 mg/mL (≈ 98 mM) | solubility ([5]; 0.5% methyl cellulose/2% Tween 80, 50 °C, aqueous with cosolvent or surfactant or cyclodextrin, 0.5% MC/2% Tween 80, 50° C., part of the concentration relates to solvent constituents): 30 mg/mL (≈ 113 mM) | solubility ([5]; 2-MeTHF, 25 °C, organic solvent or mixture, gravimetric): 35 mg/mL (≈ 132 mM) | solubility ([5]; 2-MeTHF, 50 °C, organic solvent or mixture, gravimetric): 59 mg/mL (≈ 222 mM) | solubility ([5]; 4% DMA in PBS, 25 °C, aqueous buffer, part of the concentration relates to solvent constituents): 10 mg/mL (≈ 37.7 mM) | solubility ([5]; 4% DMA in PBS, 50 °C, aqueous buffer, part of the concentration relates to solvent constituents): 13 mg/mL (≈ 49 mM) | solubility ([5]; EtOAc, 25 °C, organic solvent or mixture, gravimetric): 22 mg/mL (≈ 82.9 mM) | solubility ([5]; EtOAc, 50 °C, organic solvent or mixture, gravimetric): 38 mg/mL (≈ 143 mM) | solubility ([5]; EtOH, 25 °C, organic solvent or mixture, gravimetric): 40 mg/mL (≈ 151 mM) | solubility ([5]; EtOH, 50 °C, organic solvent or mixture, gravimetric): > 121 mg/mL | Solubility in polar and non-polar solvents ([5]; Example 2, summary statement): soluble in a variety of polar and non-polar solvents | solubility ([5]; IPA, 25 °C, organic solvent or mixture, gravimetric): 20 mg/mL (≈ 75.4 mM) | solubility ([5]; IPA, 50 °C, organic solvent or mixture, gravimetric): 53 mg/mL (≈ 200 mM) | solubility ([5]; IPAc, 25 °C, organic solvent or mixture, gravimetric): 13 mg/mL (≈ 49 mM) | solubility ([5]; IPAc, 50 °C, organic solvent or mixture, gravimetric): 16 mg/mL (≈ 60.3 mM) | solubility ([5]; MTBE, 25 °C, organic solvent or mixture, gravimetric): 10 mg/mL (≈ 37.7 mM) | solubility ([5]; MTBE, 50 °C, organic solvent or mixture, gravimetric): 16 mg/mL (≈ 60.3 mM) | solubility ([5]; MeCN, 25 °C, organic solvent or mixture, gravimetric): 20 mg/mL (≈ 75.4 mM) | solubility ([5]; MeCN, 50 °C, organic solvent or mixture, gravimetric): 38 mg/mL (≈ 143 mM) | solubility ([5]; MeOH, 25 °C, organic solvent or mixture, gravimetric): > 101 mg/mL | solubility ([5]; MeOH, 50 °C, organic solvent or mixture, gravimetric): > 112 mg/mL | solubility ([5]; THF, 25 °C, organic solvent or mixture, gravimetric): 28 mg/mL (≈ 106 mM) | solubility ([5]; THF, 50 °C, organic solvent or mixture, gravimetric): 33 mg/mL (≈ 124 mM) | solubility ([5]; acetone, 25 °C, organic solvent or mixture, gravimetric): 39 mg/mL (≈ 147 mM) | solubility ([5]; acetone, 50 °C, organic solvent or mixture, gravimetric): 90 mg/mL (≈ 339 mM) | solubility ([5]; heptane, 25 °C, organic solvent or mixture, slurry min. 3 days, gravimetric): 6 mg/mL (≈ 22.6 mM) | solubility ([5]; heptane, 50 °C, organic solvent or mixture, slurry min. 3 days, gravimetric): 6 mg/mL (≈ 22.6 mM) | solubility ([5]; toluene, 25 °C, organic solvent or mixture, gravimetric): 3 mg/mL (≈ 11.3 mM) | solubility ([5]; toluene, 50 °C, organic solvent or mixture, gravimetric): < 18 mg/mL | solubility ([5]; water, 25 °C, ^1Water (second water line), gravimetric): 2 mg/mL (≈ 7.54 mM) | solubility ([5]; water, 25 °C, gravimetric): 3 mg/mL (≈ 11.3 mM) | solubility ([5]; water, 50 °C, ^1Water (second water line), gravimetric): 6 mg/mL (≈ 22.6 mM) | solubility ([5]; water, 50 °C, gravimetric): 3 mg/mL (≈ 11.3 mM)

— US20230364029A1, “POLYMORPHIC FORMS OF (R)-2-HYDROXY-2-METHYL-4-(2,4,5-TRIMETHYL-3,6-DIOXOCYCLOHEXA-1,4-DIENYL)BUTANAMIDE” (PTC THERAPEUTICS, INC., priority 2014, published 2023)
